The results in this text go back to the supplement of paper PMC10702517.

The nature of series [1]: chemical recovery from spiked human plasma; higher = better extraction. Particulars: pooled human plasma.
The nature of series [2]: chemical recovery into PDMS from spiked human plasma; higher = better extraction. Particulars: pooled human plasma, extraction method: PES with PDMS.
Series [3] can be described thus: chemical recovery by SPE of plasma after PDMS sampling; higher = better extraction. The conditions noted are these: pooled human plasma, extraction method: HLB SPE of plasma after PES.
The mark [4] stands for this setting: extraction method: SPE only (HLB 96-well).
Setting [5] is: extraction method: SPE only (HLB 96-well), PES comparison experiment.
Setting [6] is: extraction method: solvent precipitation (ACN + hexane).
The mark [7] stands for this setting: extraction method: PES+SPE (3 d PDMS equilibration then HLB SPE).

Each structure is given as a SMILES string. ± gives the standard deviation.
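Wherever chemical recovery by SPE of plasma after PDMS sampling is given: over 400 spiked chemicals quantified by LC-HRMS or GC-HRMS via internal standard calibration, recovery relative to spike mix added to unspiked plasma extract to correct matrix effects.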

As to `CC1CN(C2CCCCCCCCCCC2)CC(C)O1` (stereo not given) [Dodemorph], the chemical recovery in series [1] (setting [4]) worked out at 29 ± 0.98%; in series [1] (setting [5]), 44.3 ± 4.7%; in series [1] (setting [6]), 73 ± 8.6%. The “chemical recovery into PDMS” value in series [2] (equilibration time (d): 1) was found to be 1.2 ± 0.66%; in series [2] (equilibration time (d): 3), 1.32 ± 1%; in series [2] (equilibration time (d): 6), 1.41 ± 0.46%. Also, the “chemical recovery by SPE of plasma” value in series [3] (equilibration time (d): 1) worked out at 0.166 ± 0.13%; in series [3] (equilibration time (d): 3), 0.11 ± 0.031%; in series [3] (equilibration time (d): 6) it was 0.044 ± 0.0048%.

Consider `C[C@]12CCC(=O)C=C1[C@@H]1C[C@@H]1[C@H]1[C@@H]3[C@@H]4C[C@@H]4[C@@]4(CCC(=O)O4)[C@@]3(C)CC[C@@H]12` [Drospirenone], for which, in series [1] (setting [5]), the chemical recovery was 42.6 ± 8.3%. Further, the “chemical recovery into PDMS” value in series [2] (equilibration time (d): 1) is 41.9 ± 2.5%; in series [2] (equilibration time (d): 3) it was 45.7 ± 3%; in series [2] (equilibration time (d): 6), 44.9 ± 1.4%. Moreover, the “chemical recovery by SPE of plasma” value in series [3] (equilibration time (d): 1) came out at 3.88 ± 0.83%; in series [3] (equilibration time (d): 3) it was 2.16 ± 0.41%; in series [3] (equilibration time (d): 6), 1.04 ± 0.16%.

In series [1] (setting [5]), `CC(C)(C)c1ccc(C(=O)CCCN2CCC(OC(c3ccccc3)c3ccccc3)CC2)cc1` [Ebastin] yielded a chemical recovery of 36.2 ± 9%. The “chemical recovery into PDMS” value in series [2] (equilibration time (d): 1) was found to be 0.444 ± 0.073%; in series [2] (equilibration time (d): 3), 0.712 ± 0.075%; in series [2] (equilibration time (d): 6), 0.469 ± 0.24%. Further, the “chemical recovery by SPE of plasma” value in series [3] (equilibration time (d): 1) worked out at 0.574 ± 0.23%.

For `O=C1Nc2ccc(Cl)cc2C(C#CC2CC2)(C(F)(F)F)O1` (stereo not given) [Efavirenz], the chemical recovery in series [1] (setting [4]) worked out at 27.1 ± 5.3%; in series [1] (setting [5]), 38.7 ± 7.3%; in series [1] (setting [6]), 41.4 ± 3.2%. Also, the “chemical recovery into PDMS” value in series [2] (equilibration time (d): 1) amounted to 44.7 ± 4.4%; in series [2] (equilibration time (d): 3), 46.6 ± 4.5%; in series [2] (equilibration time (d): 6), 47.4 ± 0.83%. Besides, the “chemical recovery by SPE of plasma” value in series [3] (equilibration time (d): 1) is 4.94 ± 4.3%; in series [3] (equilibration time (d): 3), 6.96 ± 1.3%; in series [3] (equilibration time (d): 6), 1.44 ± 2.5%.

As for `CC[C@H](C)[C@H]1O[C@]2(C=C[C@@H]1C)C[C@@H]1C[C@@H](C/C=C(\C)[C@@H](O[C@H]3C[C@H](OC)[C@@H](O[C@H]4C[C@H](OC)[C@@H](NC)[C@H](C)O4)[C@H](C)O3)[C@@H](C)/C=C/C=C3\CO[C@@H]4[C@H](O)C(C)=C[C@@H](C(=O)O1)[C@]34O)O2` [Emamectin B1a], the chemical recovery stood at 29.7 ± 9.1% in series [1] (setting [5]) and 69 ± 6.4% in series [1] (setting [6]). The “chemical recovery into PDMS” value in series [2] (equilibration time (d): 1) is 0.154 ± 0.044%; in series [2] (equilibration time (d): 3), 0.139 ± 0.047%; in series [2] (equilibration time (d): 6) it was 0.0633 ± 0.056%. For the same compound, the “chemical recovery by SPE of plasma” value in series [3] (equilibration time (d): 1) is 9.54 ± 2.3%; in series [3] (equilibration time (d): 3) it was 9.04 ± 3%; in series [3] (equilibration time (d): 6), 8.2 ± 4.6%.

`CCOC1Oc2ccc(OS(C)(=O)=O)cc2C1(C)C` (stereo not given) [Ethofumesate]: the chemical recovery in series [1] (setting [7]) was found to be 43.9 ± 5.2%; in series [1] (setting [4]), 48.8 ± 1.2%; in series [1] (setting [5]), 52.8 ± 9.5%. Also, the “chemical recovery into PDMS” value worked out at 40.5 ± 3.4% in series [2] (equilibration time (d): 1), 42.3 ± 2.6% in series [2] (equilibration time (d): 3) and 44 ± 0.63% in series [2] (equilibration time (d): 6). For the same compound, the “chemical recovery by SPE of plasma” value in series [3] (equilibration time (d): 1) is 0.62 ± 1.1%; in series [3] (equilibration time (d): 3), 1.94 ± 1.7%; in series [3] (equilibration time (d): 6), 0.896 ± 1.6%.

Take `CCOC(=O)c1ccc(N(C)C)cc1` [Ethyl 4-(dimethylamino)benzoate]: the chemical recovery in series [1] (setting [7]) came out at 25.6 ± 9.8%; in series [1] (setting [4]), 38.6 ± 1.8%; in series [1] (setting [5]) it was 37.5 ± 6.9%; in series [1] (setting [6]) it was 60.4 ± 5.1%. Moreover, the “chemical recovery into PDMS” value in series [2] (equilibration time (d): 1) came to 26 ± 6%; in series [2] (equilibration time (d): 3), 27.7 ± 4.9%; in series [2] (equilibration time (d): 6), 29.8 ± 3.4%. The “chemical recovery by SPE of plasma” value is 1.27 ± 0.14% in series [3] (equilibration time (d): 1), 1.79 ± 0.23% in series [3] (equilibration time (d): 3) and 1.11 ± 0.13% in series [3] (equilibration time (d): 6).

As for `CCOP(=S)(OCC)SCn1nnc2ccccc2c1=O` [Ethyl azinphos], the chemical recovery in series [1] (setting [5]) amounted to 46.3 ± 6%; in series [1] (setting [6]), 69.5 ± 2.2%. The “chemical recovery into PDMS” value in series [2] (equilibration time (d): 1) was found to be 39.8 ± 4.6%; in series [2] (equilibration time (d): 3) it was 41.4 ± 0.64%; in series [2] (equilibration time (d): 6), 42.5 ± 2.1%. Besides, the “chemical recovery by SPE of plasma” value in series [3] (equilibration time (d): 1) stood at 2.46 ± 0.6%; in series [3] (equilibration time (d): 3), 2.42 ± 0.18%; in series [3] (equilibration time (d): 6), 1.19 ± 0.21%.

As to `S=C1NCCN1` [Ethylenethiourea], the results for the chemical recovery in series [1] (setting [7]) and in series [1] (setting [4]) were 0.046 ± 0.019% and 0.261 ± 0.34%, respectively. In addition, in series [2] (equilibration time (d): 6), the “chemical recovery into PDMS” value was 0.013 ± 0.022%. Further, the “chemical recovery by SPE of plasma” value was found to be 0.0882 ± 0.15% in series [3] (equilibration time (d): 3) and 0.15 ± 0.26% in series [3] (equilibration time (d): 6).

For the compound `CC(Cc1ccc(C(C)(C)C)cc1)CN1CCCCC1` (stereo not given) [Fenpropidin], the chemical recovery in series [1] (setting [5]) is 44.5 ± 7.7%; in series [1] (setting [6]) it was 105 ± 9.7%. In series [2] (equilibration time (d): 3), the “chemical recovery into PDMS” value came to 0.0302 ± 0.026%. Moreover, the “chemical recovery by SPE of plasma” value in series [3] (equilibration time (d): 1) came out at 0.126 ± 0.086%; in series [3] (equilibration time (d): 3), 0.0736 ± 0.023%; in series [3] (equilibration time (d): 6), 0.0409 ± 0.011%.

In the case of `CC(Cc1ccc(C(C)(C)C)cc1)CN1C[C@@H](C)O[C@@H](C)C1` (stereo not given in full) [Fenpropimorph], the chemical recovery in series [1] (setting [5]) came to 43.4 ± 8%; in series [1] (setting [6]), 80.2 ± 11%. The “chemical recovery into PDMS” value in series [2] (equilibration time (d): 1) turned out to be 0.0443 ± 0.064%; in series [2] (equilibration time (d): 3) it was 0.0146 ± 0.013%; in series [2] (equilibration time (d): 6) it was 0.0427 ± 0.056%. The “chemical recovery by SPE of plasma” value is 0.124 ± 0.08% in series [3] (equilibration time (d): 1), 0.066 ± 0.064% in series [3] (equilibration time (d): 3) and 0.0142 ± 0.017% in series [3] (equilibration time (d): 6).

With `CC(C)(C)NC(=O)[C@H]1CC[C@H]2[C@@H]3CC[C@H]4NC(=O)C=C[C@]4(C)[C@H]3CC[C@]12C` [Finasteride], the chemical recovery in series [1] (setting [5]) was 47.9 ± 6.3%. Moreover, the “chemical recovery into PDMS” value is 32.6 ± 3% in series [2] (equilibration time (d): 1), 37.9 ± 1.4% in series [2] (equilibration time (d): 3) and 38.5 ± 0.91% in series [2] (equilibration time (d): 6). The “chemical recovery by SPE of plasma” value in series [3] (equilibration time (d): 1) turned out to be 9.28 ± 1.5%; in series [3] (equilibration time (d): 3), 5.81 ± 1.2%; in series [3] (equilibration time (d): 6), 3.05 ± 0.42%.

For `N#Cc1nn(-c2c(Cl)cc(C(F)(F)F)cc2Cl)c(N)c1C(F)(F)F` [Fipronil desulfinyl], the chemical recovery in series [1] (setting [4]) came to 30.2 ± 6.1%; in series [1] (setting [5]), 67.3 ± 7.3%; in series [1] (setting [6]), 53.7 ± 4.2%. Moreover, the “chemical recovery into PDMS” value came to 33.7 ± 0.57% in series [2] (equilibration time (d): 1), 36.3 ± 2.9% in series [2] (equilibration time (d): 3) and 34.8 ± 0.66% in series [2] (equilibration time (d): 6). In addition, the “chemical recovery by SPE of plasma” value was 17.6 ± 2.5% in series [3] (equilibration time (d): 1), 18 ± 1.9% in series [3] (equilibration time (d): 3) and 13.8 ± 0.85% in series [3] (equilibration time (d): 6).
